Laboratory results taken from ChEMBL document CHEMBL4507305, “Data for DCP probe TP-024” (2021).

Columns and labels:
[1] = target: Cyclin-dependent kinase 14 (Homo sapiens) (UniProt O94921); conditions: Compound concentration 1000.0 nM
[2] = target: Serine/threonine-protein kinase D3 (Homo sapiens) (UniProt O94806); conditions: Compound concentration 1000.0 nM
[3] = target: Serine/threonine-protein kinase PAK 6 (Homo sapiens) (UniProt Q9NQU5); conditions: Compound concentration 1000.0 nM
[4] = target: RAF proto-oncogene serine/threonine-protein kinase (Homo sapiens) (UniProt P04049); conditions: Compound concentration 1000.0 nM
[5] = target: Serine/threonine-protein kinase STK11 (Homo sapiens) (UniProt Q15831); conditions: Compound concentration 1000.0 nM
[6] = tested on: Tyrosine-protein kinase ABL1 (Homo sapiens), P00519 [H396P]; conditions: Compound concentration 1000.0 nM
[7] = target: Leukocyte tyrosine kinase receptor (Homo sapiens) (UniProt P29376); conditions: Compound concentration 1000.0 nM
[8] = target: Tyrosine-protein kinase Srms (Homo sapiens) (UniProt Q9H3Y6); conditions: Compound concentration 1000.0 nM
[9] = target: Cyclin-dependent kinase-like 2 (Homo sapiens) (UniProt Q92772); conditions: Compound concentration 1000.0 nM
[10] = target: Mitogen-activated protein kinase kinase kinase 20 (Homo sapiens) (UniProt Q9NYL2); conditions: Compound concentration 1000.0 nM
[11] = target: Tyrosine-protein kinase TXK (Homo sapiens) (UniProt P42681); conditions: Compound concentration 1000.0 nM
[12] = target: Calcium/calmodulin-dependent protein kinase type 1G (Homo sapiens) (UniProt Q96NX5); conditions: Compound concentration 1000.0 nM
[13] = target: Serine/threonine-protein kinase 24 (Homo sapiens) (UniProt Q9Y6E0); conditions: Compound concentration 1000.0 nM
[14] = target: ALK tyrosine kinase receptor (Homo sapiens) (UniProt Q9UM73); conditions: Compound concentration 1000.0 nM
[15] = target: Ribosomal protein S6 kinase alpha-4 (Homo sapiens) (UniProt O75676); conditions: Compound concentration 1000.0 nM
[16] = tested on: Mast/stem cell growth factor receptor Kit (Homo sapiens), P10721 [D816V]; conditions: Compound concentration 1000.0 nM
[17] = tested on: Epidermal growth factor receptor (Homo sapiens), P00533 [G719S]; conditions: Compound concentration 1000.0 nM
[18] = target: Serine/threonine-protein kinase MRCK beta (Homo sapiens) (UniProt Q9Y5S2); conditions: Compound concentration 1000.0 nM
[19] = target: Serine/threonine-protein kinase 26 (Homo sapiens) (UniProt Q9P289); conditions: Compound concentration 1000.0 nM
[20] = target: Tyrosine-protein kinase receptor TYRO3 (Homo sapiens) (UniProt Q06418); conditions: Compound concentration 1000.0 nM
[21] = target: Cyclin-dependent kinase 5 (Homo sapiens) (UniProt Q00535); conditions: Compound concentration 1000.0 nM
[22] = target: Serine/threonine-protein kinase 10 (Homo sapiens) (UniProt O94804); conditions: Compound concentration 1000.0 nM
[23] = target: Mitogen-activated protein kinase kinase kinase 3 (Homo sapiens) (UniProt Q99759); conditions: Compound concentration 1000.0 nM
[24] = target: Interleukin-1 receptor-associated kinase 1 (Homo sapiens) (UniProt P51617); conditions: Compound concentration 1000.0 nM
[25] = target: TGF-beta receptor type-2 (Homo sapiens) (UniProt P37173); conditions: Compound concentration 1000.0 nM
[26] = target: Cyclin-dependent kinase 9 (Homo sapiens) (UniProt P50750); conditions: Compound concentration 1000.0 nM
[27] = target: Serine/threonine-protein kinase tousled-like 2 (Homo sapiens) (UniProt Q86UE8); conditions: Compound concentration 1000.0 nM
[28] = target: Tyrosine-protein kinase CSK (Homo sapiens) (UniProt P41240); conditions: Compound concentration 1000.0 nM
[29] = target: Cytoplasmic tyrosine-protein kinase BMX (Homo sapiens) (UniProt P51813); conditions: Compound concentration 1000.0 nM
[30] = target: Rhodopsin kinase GRK1 (Homo sapiens) (UniProt Q15835); conditions: Compound concentration 1000.0 nM
[31] = target: Serine/threonine-protein kinase ULK1 (Homo sapiens) (UniProt O75385); conditions: Compound concentration 1000.0 nM
[32] = target: Mitogen-activated protein kinase 4 (Homo sapiens) (UniProt P31152); conditions: Compound concentration 1000.0 nM
[33] = target: LIM domain kinase 1 (Homo sapiens) (UniProt P53667); conditions: Compound concentration 1000.0 nM
[34] = tested on: Receptor-type tyrosine-protein kinase FLT3 (Homo sapiens), P36888 [D835V]; conditions: Compound concentration 1000.0 nM
[35] = target: Phosphatidylinositol 4-phosphate 5-kinase type-1 gamma (Homo sapiens) (UniProt O60331); conditions: Compound concentration 1000.0 nM
[36] = target: LIM domain kinase 2 (Homo sapiens) (UniProt P53671); conditions: Compound concentration 1000.0 nM
[37] = target: Serine/threonine-protein kinase ULK2 (Homo sapiens) (UniProt Q8IYT8); conditions: Compound concentration 1000.0 nM
[38] = target: Calcium/calmodulin-dependent protein kinase type II subunit alpha (Homo sapiens) (UniProt Q9UQM7); conditions: Compound concentration 1000.0 nM
[39] = target: Tyrosine-protein kinase Lyn (Homo sapiens) (UniProt P07948); conditions: Compound concentration 1000.0 nM
[40] = target: Tyrosine-protein kinase ZAP-70 (Homo sapiens) (UniProt P43403); conditions: Compound concentration 1000.0 nM
[41] = tested on: Tyrosine-protein kinase ABL1 (Homo sapiens), P00519 [Q252H]; conditions: Compound concentration 1000.0 nM
[42] = target: MAP/microtubule affinity-regulating kinase 4 (Homo sapiens) (UniProt Q96L34); conditions: Compound concentration 1000.0 nM
[43] = target: NUAK family SNF1-like kinase 1 (Homo sapiens) (UniProt O60285); conditions: Compound concentration 1000.0 nM
[44] = target: Alpha-1B adrenergic receptor (Homo sapiens) (UniProt P35368); conditions: Compound concentration 10.0 uM
[45] = tested on: Epidermal growth factor receptor (Homo sapiens), P00533 [UNDEFINED MUTATION]; conditions: Compound concentration 1000.0 nM

Sequence of Cyclin-dependent kinase 5 (Homo sapiens) (Q00535 whole entry, looked up): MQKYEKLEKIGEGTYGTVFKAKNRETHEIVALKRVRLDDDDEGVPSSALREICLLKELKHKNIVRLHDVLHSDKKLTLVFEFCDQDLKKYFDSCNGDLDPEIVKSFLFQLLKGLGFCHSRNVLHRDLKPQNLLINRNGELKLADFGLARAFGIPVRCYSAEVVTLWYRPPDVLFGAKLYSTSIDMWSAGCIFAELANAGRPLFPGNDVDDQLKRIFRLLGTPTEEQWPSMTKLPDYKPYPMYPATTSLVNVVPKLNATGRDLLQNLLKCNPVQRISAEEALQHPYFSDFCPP
Sequence of LIM domain kinase 2 (Homo sapiens) (P53671 whole entry, looked up, the tested form may be a part): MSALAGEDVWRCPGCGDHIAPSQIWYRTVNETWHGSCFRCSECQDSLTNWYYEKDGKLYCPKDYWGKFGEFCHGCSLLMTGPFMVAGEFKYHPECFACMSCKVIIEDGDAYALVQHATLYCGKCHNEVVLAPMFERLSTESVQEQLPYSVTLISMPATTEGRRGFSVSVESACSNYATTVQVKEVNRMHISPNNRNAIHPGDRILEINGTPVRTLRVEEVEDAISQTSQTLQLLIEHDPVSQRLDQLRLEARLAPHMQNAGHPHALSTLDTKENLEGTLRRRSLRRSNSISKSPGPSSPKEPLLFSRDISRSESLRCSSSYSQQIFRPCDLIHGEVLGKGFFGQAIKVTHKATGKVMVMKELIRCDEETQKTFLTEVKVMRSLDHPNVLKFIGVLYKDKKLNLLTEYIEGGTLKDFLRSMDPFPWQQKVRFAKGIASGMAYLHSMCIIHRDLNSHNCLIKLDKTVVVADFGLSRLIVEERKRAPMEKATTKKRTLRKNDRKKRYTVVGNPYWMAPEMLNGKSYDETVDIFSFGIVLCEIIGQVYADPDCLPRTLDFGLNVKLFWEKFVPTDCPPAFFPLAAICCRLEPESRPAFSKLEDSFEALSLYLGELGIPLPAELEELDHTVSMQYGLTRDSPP
Sequence of Tyrosine-protein kinase Srms (Homo sapiens) (Q9H3Y6 whole entry): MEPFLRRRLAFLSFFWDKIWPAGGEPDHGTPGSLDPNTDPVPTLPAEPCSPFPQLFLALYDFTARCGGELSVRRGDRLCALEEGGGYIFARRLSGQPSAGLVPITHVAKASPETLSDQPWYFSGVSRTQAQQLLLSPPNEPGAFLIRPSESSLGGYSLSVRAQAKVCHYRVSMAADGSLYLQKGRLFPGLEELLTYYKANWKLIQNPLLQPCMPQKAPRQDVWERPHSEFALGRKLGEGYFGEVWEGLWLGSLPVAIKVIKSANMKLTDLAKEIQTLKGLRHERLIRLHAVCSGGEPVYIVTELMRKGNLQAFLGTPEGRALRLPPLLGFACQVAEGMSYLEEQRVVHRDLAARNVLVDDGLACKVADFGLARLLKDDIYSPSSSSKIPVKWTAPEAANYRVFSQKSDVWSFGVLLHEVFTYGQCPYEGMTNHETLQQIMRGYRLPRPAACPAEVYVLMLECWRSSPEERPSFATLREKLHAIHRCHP
Sequence of Serine/threonine-protein kinase MRCK beta (Homo sapiens) (Q9Y5S2 whole entry): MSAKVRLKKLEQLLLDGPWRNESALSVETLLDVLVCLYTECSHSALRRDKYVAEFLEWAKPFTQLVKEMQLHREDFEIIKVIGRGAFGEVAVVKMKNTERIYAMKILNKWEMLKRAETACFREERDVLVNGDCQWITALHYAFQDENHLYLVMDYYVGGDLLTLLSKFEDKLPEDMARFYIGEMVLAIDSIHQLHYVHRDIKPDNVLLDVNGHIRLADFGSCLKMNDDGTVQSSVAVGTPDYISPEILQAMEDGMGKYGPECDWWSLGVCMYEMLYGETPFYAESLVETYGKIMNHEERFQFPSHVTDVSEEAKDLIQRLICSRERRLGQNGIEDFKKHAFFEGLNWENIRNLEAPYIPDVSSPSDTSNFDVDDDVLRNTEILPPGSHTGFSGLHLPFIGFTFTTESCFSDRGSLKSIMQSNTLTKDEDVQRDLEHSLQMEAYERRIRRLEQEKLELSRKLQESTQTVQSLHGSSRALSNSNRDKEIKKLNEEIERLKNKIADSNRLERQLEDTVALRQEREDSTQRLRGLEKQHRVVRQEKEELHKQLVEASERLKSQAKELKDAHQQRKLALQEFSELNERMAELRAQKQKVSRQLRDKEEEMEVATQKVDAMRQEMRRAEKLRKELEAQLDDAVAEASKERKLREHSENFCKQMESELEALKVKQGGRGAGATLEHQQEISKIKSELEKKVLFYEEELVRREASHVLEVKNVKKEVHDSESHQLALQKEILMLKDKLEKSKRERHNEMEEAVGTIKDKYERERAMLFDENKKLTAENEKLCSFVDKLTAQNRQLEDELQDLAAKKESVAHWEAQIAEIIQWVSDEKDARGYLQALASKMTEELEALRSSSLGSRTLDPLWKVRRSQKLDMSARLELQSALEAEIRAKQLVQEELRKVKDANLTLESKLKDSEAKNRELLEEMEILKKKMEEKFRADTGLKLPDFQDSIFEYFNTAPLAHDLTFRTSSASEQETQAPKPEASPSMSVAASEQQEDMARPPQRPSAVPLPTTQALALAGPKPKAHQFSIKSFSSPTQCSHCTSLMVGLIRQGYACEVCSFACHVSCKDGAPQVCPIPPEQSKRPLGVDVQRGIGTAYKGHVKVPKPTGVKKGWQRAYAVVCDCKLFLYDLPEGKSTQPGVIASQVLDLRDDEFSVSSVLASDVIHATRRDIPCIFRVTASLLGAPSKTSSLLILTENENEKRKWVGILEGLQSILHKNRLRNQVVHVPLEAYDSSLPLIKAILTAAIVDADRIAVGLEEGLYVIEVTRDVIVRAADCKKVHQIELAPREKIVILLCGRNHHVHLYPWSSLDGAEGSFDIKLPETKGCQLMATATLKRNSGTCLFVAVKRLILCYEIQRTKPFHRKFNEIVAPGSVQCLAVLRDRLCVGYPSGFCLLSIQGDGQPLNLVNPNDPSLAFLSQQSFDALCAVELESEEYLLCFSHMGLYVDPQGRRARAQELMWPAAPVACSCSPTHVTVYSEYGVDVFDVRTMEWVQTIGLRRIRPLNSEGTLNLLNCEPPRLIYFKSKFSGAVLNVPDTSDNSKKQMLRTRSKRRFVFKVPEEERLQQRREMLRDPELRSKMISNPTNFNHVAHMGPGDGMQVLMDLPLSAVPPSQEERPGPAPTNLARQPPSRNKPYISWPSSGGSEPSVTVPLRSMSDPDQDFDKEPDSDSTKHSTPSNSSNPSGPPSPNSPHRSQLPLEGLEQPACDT
Sequence of Serine/threonine-protein kinase 24 (Homo sapiens) (Q9Y6E0 whole entry, looked up): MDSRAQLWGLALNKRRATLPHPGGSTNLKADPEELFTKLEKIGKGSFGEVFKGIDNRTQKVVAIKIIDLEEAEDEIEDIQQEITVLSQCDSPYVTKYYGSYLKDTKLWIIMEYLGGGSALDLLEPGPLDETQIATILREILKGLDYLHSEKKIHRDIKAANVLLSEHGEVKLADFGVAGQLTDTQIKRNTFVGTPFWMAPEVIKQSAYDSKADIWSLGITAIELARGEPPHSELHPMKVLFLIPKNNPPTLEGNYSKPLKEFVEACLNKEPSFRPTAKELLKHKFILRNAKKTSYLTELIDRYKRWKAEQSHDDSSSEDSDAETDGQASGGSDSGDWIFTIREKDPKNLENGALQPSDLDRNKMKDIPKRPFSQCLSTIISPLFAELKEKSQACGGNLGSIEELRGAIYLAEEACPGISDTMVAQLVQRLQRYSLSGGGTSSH
Sequence of Alpha-1B adrenergic receptor (Homo sapiens) (P35368 whole entry): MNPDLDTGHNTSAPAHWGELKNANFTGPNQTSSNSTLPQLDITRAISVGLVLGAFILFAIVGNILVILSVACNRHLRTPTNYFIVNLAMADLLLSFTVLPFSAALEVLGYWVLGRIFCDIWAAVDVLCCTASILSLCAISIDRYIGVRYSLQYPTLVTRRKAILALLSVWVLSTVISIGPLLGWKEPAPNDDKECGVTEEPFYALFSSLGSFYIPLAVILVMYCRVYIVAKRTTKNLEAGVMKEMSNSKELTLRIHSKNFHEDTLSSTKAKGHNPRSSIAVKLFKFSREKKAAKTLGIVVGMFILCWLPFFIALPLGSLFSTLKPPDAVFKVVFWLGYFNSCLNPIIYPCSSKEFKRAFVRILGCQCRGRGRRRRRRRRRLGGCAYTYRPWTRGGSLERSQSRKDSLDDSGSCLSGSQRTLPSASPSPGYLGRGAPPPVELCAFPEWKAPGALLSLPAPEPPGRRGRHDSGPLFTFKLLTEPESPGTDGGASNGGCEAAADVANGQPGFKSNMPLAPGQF
Sequence of Interleukin-1 receptor-associated kinase 1 (Homo sapiens) (P51617 whole entry, looked up): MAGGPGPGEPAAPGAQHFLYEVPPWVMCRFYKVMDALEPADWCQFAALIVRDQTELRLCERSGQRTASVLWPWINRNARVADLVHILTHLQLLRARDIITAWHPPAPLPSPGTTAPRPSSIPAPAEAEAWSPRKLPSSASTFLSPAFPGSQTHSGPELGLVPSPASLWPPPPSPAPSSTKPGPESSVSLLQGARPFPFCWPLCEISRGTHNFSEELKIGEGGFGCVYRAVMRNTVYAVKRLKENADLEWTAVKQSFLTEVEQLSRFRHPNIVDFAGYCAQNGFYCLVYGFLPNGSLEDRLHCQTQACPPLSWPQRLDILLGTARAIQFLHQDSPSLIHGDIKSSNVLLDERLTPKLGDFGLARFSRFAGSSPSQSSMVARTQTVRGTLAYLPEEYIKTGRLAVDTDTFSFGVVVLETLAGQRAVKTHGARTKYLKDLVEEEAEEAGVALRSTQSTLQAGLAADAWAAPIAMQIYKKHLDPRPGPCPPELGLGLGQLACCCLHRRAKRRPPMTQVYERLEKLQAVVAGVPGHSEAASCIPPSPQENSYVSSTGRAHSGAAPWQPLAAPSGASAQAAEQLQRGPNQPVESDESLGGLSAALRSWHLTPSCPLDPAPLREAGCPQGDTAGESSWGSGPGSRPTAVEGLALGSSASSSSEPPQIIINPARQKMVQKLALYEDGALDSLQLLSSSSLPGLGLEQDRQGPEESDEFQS

SMILES: Cc1cc(-n2nc(Cc3cc(F)cc(C(F)(F)F)c3)nc2C)ccc1C(N)=O [TP-024]
- residual activity [1]: 100%
- residual activity [2]: 81%
- residual activity [3]: 100%
- residual activity [4]: 87%
- residual activity [5]: 100%
- residual activity [6]: 98%
- residual activity [7]: 100%
- residual activity [8]: 98%
- residual activity [9]: 100%
- residual activity [10]: 99%
- residual activity [11]: 84%
- residual activity [12]: 100%
- residual activity [13]: 100%
- residual activity [14]: 100%
- residual activity [15]: 100%
- residual activity [16]: 100%
- residual activity [17]: 100%
- residual activity [18]: 100%
- residual activity [19]: 100%
- residual activity [20]: 100%
- residual activity [21]: 100%
- residual activity [22]: 100%
- residual activity [23]: 94%
- residual activity [24]: 100%
- residual activity [25]: 100%
- residual activity [26]: 100%
- residual activity [27]: 100%
- residual activity [28]: 97%
- residual activity [29]: 100%
- residual activity [30]: 87%
- residual activity [31]: 100%
- residual activity [32]: 100%
- residual activity [33]: 100%
- residual activity [34]: 100%
- residual activity [35]: 66%
- residual activity [36]: 95%
- residual activity [37]: 100%
- residual activity [38]: 99%
- residual activity [39]: 100%
- residual activity [40]: 82%
- residual activity [41]: 100%
- residual activity [42]: 77%
- residual activity [43]: 100%
- inhibition [44]: 6.84%
- residual activity [45]: 83%

SMILES: Cc1nc(Cc2cccc(C(F)(F)F)c2)sc1-c1ccc(C(N)=O)nc1 [TP-024n]
- residual activity [1]: 100%
- residual activity [2]: 97%
- residual activity [3]: 92%
- residual activity [4]: 70%
- residual activity [5]: 100%
- residual activity [6]: 96%
- residual activity [7]: 100%
- residual activity [8]: 77%
- residual activity [9]: 92%
- residual activity [10]: 73%
- residual activity [11]: 70%
- residual activity [12]: 99%
- residual activity [13]: 100%
- residual activity [14]: 99%
- residual activity [15]: 100%
- residual activity [16]: 81%
- residual activity [17]: 67%
- residual activity [18]: 39%
- residual activity [19]: 83%
- residual activity [20]: 99%
- residual activity [21]: 100%
- residual activity [22]: 100%
- residual activity [23]: 97%
- residual activity [24]: 100%
- residual activity [25]: 100%
- residual activity [26]: 100%
- residual activity [27]: 82%
- residual activity [28]: 88%
- residual activity [29]: 59%
- residual activity [30]: 98%
- residual activity [31]: 100%
- residual activity [32]: 100%
- residual activity [33]: 100%
- residual activity [34]: 100%
- residual activity [35]: 84%
- residual activity [36]: 98%
- residual activity [37]: 100%
- residual activity [38]: 91%
- residual activity [39]: 95%
- residual activity [40]: 93%
- residual activity [41]: 100%
- residual activity [42]: 83%
- residual activity [43]: 86%
- inhibition [44]: 24.6%
- residual activity [45]: 83%
